Data set [1] is described as follows: Body weight gain of obese mouse (compound A-mixed feed, 4 days). Type of data set: in vivo, male KKA^y mice. To be noted: KKA^y mice, 10 week old, 0.005% compound A-mixed feed (about 6.5 mg/kg/day), mean±standard error, control 1.2±0.2 g, p<0.05. The protocol:
Effect of 2-ethoxy-1-[[2′-(2,5-dihydro-5-oxo-1,2,4-oxadiazole-3-yl)biphenyl-4-yl]methyl]benzimidazole-7-carboxylic acid (Compound A) on Body Weight Gain of Obese Mouse
As the obese mouse, male KKA^y mice (10 week old) were used. The mice were grouped by measuring the body weight, and feeding of a CE-2 powdered feed (control)(n=7) and a 0.005% compound A-mixed feed (n=7) was started. At 4 days from feeding, the body weight was measured and the amount of the body weight gain was calculated. As the normal control, C57BL mice were used, and after feeding a CE-2 powdered feed for 4 days, whether the male KKA^y mice of the same age became obese was also examined.
The results are shown in mean±standard error. For the analysis of significance, Student's t-test was used. • 2) Results

The nature of data set [2]: Body weight gain induced by PPARγ agonist-like substance (pioglitazone) in obesity rats. Type of data set: in vivo, male Wistar fatty rats. The following applies: Wistar fatty rats, 7 days. The protocol:
Effect of Compound a on Body Weight Gain Induced by PPARγ Agonist-Like Substance (Pioglitazone) As the obesity rats, male Wistar fatty rats (16 week old) were used. The body weights were measured and the rats were grouped, after which a suspension of a drug in 0.5% methylcellulose solution was repeatedly and forcibly administered orally once a day for 7 consecutive days. After 24 hr from the final administration, the body weight was measured and the body weight gain was calculated. […] For the analysis of significance, Student's t-test was used. • 2) Results

For data set [3] the following is noted: patients with type II diabetes; Diabetes, 47, suppl. 1, A18, No. 69, 1998; cited from earlier work.

Counter-ions that a name gives are not always drawn.

Take `CCOc1nc2cccc(C(=O)O)c2n1Cc1ccc(-c2ccccc2-c2nc(=O)o[nH]2)cc1` [compound A, 2-ethoxy-1-[[2′-(2,5-dihydro-5-oxo-1,2,4-oxadiazol-3-yl)biphenyl-4-yl]methyl]benzimidazole-7-carboxylic acid]: in data set [1], the “body weight gain during the test period” value came to 0.1 ± 0.4 g. Also, the “amount of body weight gain” value in data set [2] (compound A 1 mg/kg/day p.o. together with PPARγ agonist-like substance (pioglitazone hydrochloride) 0.5 mg/kg/day p.o., p<0.05 vs single administration group) was 19.3 ± 2.5 g.

For the compound `CCc1ccc(CCOc2ccc(CC3SC(=O)NC3=O)cc2)nc1` (stereo not shown) [pioglitazone hydrochloride], the “amount of body weight gain” value in data set [2] (0.5 mg/kg/day p.o. alone, mean±standard error, control 24.4±2.4 g, p<0.05) stood at 30.8 ± 1.8 g.

With `Cc1c(C)c2c(c(C)c1O)CCC(C)(COc1ccc(CC3SC(=O)NC3=O)cc1)O2` (stereo not shown) [troglitazone], the “effect on body weight” value in data set [3] is reported as “body weight gaining action”.
